Reference: US5602140A, “Purine derivatives and suppressants for inflammatory diseases” (Japan Energy Corporation, priority 1994, dated 1997)
Structures can show the parent of a compound that is named as a salt.

Legend:
[1] = Scavenging of active oxygen / inhibitory effect against lipid peroxidation (oxidation of linolenic acid to conjugated diene by hydroxy radical, Fenton reaction); assay type: biochemical; conditions: linolenic acid 1.0 mM, absorbance at 234 nm
Procedure: The inhibitory effect against oxidation of linolenic acid to conjugated diene due to hydroxy radical (. OH) formed by Fenton reaction was determined according to the method of Kharasch et al. (see J. Biol. Chem., 2.60, 10,645 (1985)). A predetermined concentration of FeCl2 solution was added to a mixture of water and DMSO containing predetermined amount of linolenic acid, NaCl, H2 O2, Lubrol and the rest compound to start the reaction. […] Then, the changes of absorbance at 234 nm due to the formation of conjugated diene in the reaction solutions were determined periodically. The inhibitory rate (%) was estimated from the differences between the test solutions and corresponding solutions without the test compound. When the difference of said reaction rate was 0 (zero), then the inhibitory rate was made 0%, and when the reaction rate was 0 (zero), then the inhibitory rate was made 100%.
The inhibitory rate was estimated for various concentrations of said test compounds and the 50%-inhibitory concentration (IC50) was regressively calculated. The preventive effect against lipid peroxidation was evaluated using IC50.

[2] = system: platelet aggregation induced by PAF; experiment: Anti-PAF activity: inhibition of platelet aggregation induced by PAF in platelet rich plasma; assay type: cell-based, rabbit; conditions: Oryctolagus cuniculus, PAF 10 nM, test compound concentration 30 μM, read-out: Inhibitory rate
Procedure: Anti-PAF activity of purine derivatives of the present invention was evaluated in the inhibition of platelet aggregation induced by PAF (platelet activation factor).
In the present evaluation, blood was drawn from rabbit and 9 volumes of the blood was added with 1 volume of 3.8% sodium citrate solution, centrifuged at 2,000 rpm for 3 min. to give platelet rich plasma (PRP). In a platelet aggregation determination apparatus, 200 μl of the PRP solution and 25 μl of a solution prepared from a predetermined amount of the test compound were mixed and incubated for 2 min. The incubated mixture was added with 25 μl of a solution containing a predetermined amount of PAF to cause platelet aggregation induced by PAF in the test solution. A concentration of PAF was 10 nM in the test solution. The inhibitory rate against platelet aggregation induced by PAF was calculated from the changes of transmission accompanied by the platelet aggregation.
Various concentrations of the test compounds in the test solution were selected to investigate the relationship between the concentration and the inhibitory rate for the evaluation of inhibitory rate of platelet aggregation induced by PAF. […] The inhibitory rate for the positive control compound, CV-3988 (rac-3-(N-n-octadecylcarbamoyl)-2-methoxypropyl-2-thiazolium ethyl phosphate) is also shown in Table 4.

[3] = molecular target: TXA2 synthesis (crude TXA2 synthetase); experiment: Inhibition of TXA2 synthesis (crude TXA2 synthetase, labeled arachidonic acid, RIA); assay type: biochemical, human; conditions: for IC50: TXA2 formation, 37° C., 10 min
Procedure: Inhibitory effect against TXA2 synthesis was evaluated by the method shown below determining the formation of TXA2 as an arachidonic acid metabolite in the presence of purine derivatives of the present invention.
TXA2 (thromboxane A2) is reported to be synthesized by TXA2 synthetase in arachidonic acid cascade via a cyclic peroxide (PGH2) formed by cyclooxygenase system. Crude TXA2 synthetase was prepared by the following method in the present invention. Blood drawn from healthy volunteer was centrifuged at 200 G for 15 min. and the resulting supernatant was further centrifuged at 2,000 G for 10 min. to give precipitates. The precipitates were homogenized in 0.01M phosphate buffer and centrifuged at 1,000 G for 10 min. to give a supernatant. The resultant supernatant was used as a crude TXA2 synthetase in the following processes. […] The reaction solution was incubated at 37° C. for 10 min. and TXA2 formed in the reaction mixture was determined by RIA method using a commercially available kit (Amersham Co., Ltd., RIA kit). The inhibitory rate was calculated from the difference between the determined amount of formed TXA2 and that carried out in the absence of the test compound. When the difference of formed amount of TXA2 was 0 (zero), then the inhibitory rate was made 0% and when the formation of TXA2 was equal to that of solvent control without TXA2 synthetase, then the inhibitory rate was made 100%.
The inhibitory rate was estimated for various concentrations of said test compounds and the concentration of 50%-inhibition (IC50) was regressively calculated. The inhibitory effect against TXA2 formation was evaluated using IC50.

[4] = system: nephrotoxin-induced nephritis; experiment: Effect on nephrotoxin-induced nephritis (anti-GBM serum) in rats; assay type: in vivo, male SD rats; conditions: for Serum parameter BUN / Serum parameter Total cholesterol / Serum parameter triglyceride / Urinary protein One day before induction / Urinary protein Day 5 after induction / Urinary protein Day 3 after induction: oral once daily, means ± S.E.; for Serum parameter BUN: control 27.6 ± 0.9; for Serum parameter Total cholesterol: control 75 ± 3; for Serum parameter triglyceride: control 161 ± 25; for Urinary protein One day before induction: control 12.2 ± 1.1; for Urinary protein Day 5 after induction: control 72.1 ± 25.7; for Urinary protein Day 3 after induction: control 74.1 ± 25.6
Procedure: Inhibitory effect of purine derivatives of the present invention against nephrotoxin-induced nephritis was evaluated by the following method.
In the present method of evaluation, nephrotoxin-induced nephritis was induced by administration of anti-GBM (glomerular basement membrane) serum to 9-week old male SD rats. The anti-GBM serum was prepared according to a known method (see Kidney and Dialysis (Jin to Toseki) 31, Special Issue, p. 202-206 (1991), Pub. by Tokyo Igakusha Ltd., Tokyo, Japan). Anti-GBM serum was intravenously administered at an induction dose of 0.15 ml/300 g (body weight). The predetermined dose per body weight of the test compound was suspended in 0.5% CMC--Na aqueous solution and orally administered once daily for consecutive 7 days starting from one day before induction (administration of anti-GBM serum). While, control group was given the same dose of 0.5% CMC--Na aqueous solution only. During the administration period of the test compound, urinary protein was measured every 24 hrs. Seven days after the induction, blood was drawn to prepare serum sample by a conventional method, and BUN, total cholesterol and triglyceride were measured.
Various doses of the test compounds per body weight were selected to investigate the relationship between the dose and urinary protein for the evaluation of inhibitory effect against nephrotoxin-induced nephritis.

endotoxin induced death = experiment: Activity for the endotoxin (LPS) induced death in mice; assay type: in vivo, male ICR mice; conditions: for Survival rate: oral twice (30 min before and 8 hrs after LPS 15 mg/kg i.p.), within 4 days, control 50%
Procedure: (Activity for the endotoxin induced death) Activity of purine derivatives of the present invention for endothelial cell damage by endotoxin was evaluated by the following method.
In the present method of evaluation, endotoxin caused endothelial cell damage was induced by intraperitoneal administration of LPS (E. coli 055:B5) to male ICR mice. The body weight of test mice was determined beforehand and a dose of 15 mg/kg (body weight) of LPS was predetermined. After administration of LPS, the difference between the number of dead mice induced by endotoxin within 4 days and the total number of mice was divided by the total number of mice to give the survival rate. The dose per body weight of test compound was predetermined and orally administered at 30 min. before induction (LPS administration) and at 8 hrs. after the induction, twice in total. The test compounds were suspended in 0.5% CMC--Na aqueous solution.
Various doses of the test compounds per body weight were selected to investigate the relationship between the dose and survival rate for the evaluation of inhibitory effect against endotoxin induced death. […] While, control group was given the same dose of 0.5% CMC--Na aqueous solution only. […] That is, the inhibitory effect of the compound of the present invention against endotoxin induced death was clearly observed.

[5] = system: TXA2 synthesis (crude TXA2 synthetase); conditions: J. Med. Chem., 24, 1139-1149 (1981); cited from earlier work
[6] = system: platelet aggregation induced by PAF; conditions: Life Science, 32, 1975-1982 (1983); cited from earlier work
[7] = dose 30 mg/kg, day 7 after induction
[8] = dose 100 mg/kg, day 7 after induction, *p < 0.05

| Compound | IC50 [1] | IC50 [3] | inhibition at 30 µM [2] | also measured |
| --- | --- | --- | --- | --- |
| CC(C)(C)c1cc(-c2nc(OCc3ccc(C(=O)O)cc3)c3[nH]cnc3n2)cc(C(C)(C)C)c1O [Example 11, 6-(4-carboxybenzyloxy)-2-(3,5-di-tert-butyl-4-hydroxyphenyl)purine] | 3.9 µM | – | 53% | – |
| CCCOc1nc(-c2cc(C(C)(C)C)c(O)c(C(C)(C)C)c2)nc2nc[nH]c12 [Example 2, 2-(3,5-di-tert-butyl-4-hydroxyphenyl)-6-n-propoxypurine] | 3.4 µM | 0.157 µM | 57% | Serum parameter BUN [4, 7]: 26.9 ± 0.8 mg/dL; Serum parameter Total cholesterol [4, 7]: 72 ± 6 mg/dL; Serum parameter triglyceride [4, 7]: 125 ± 20 mg/dL; Urinary protein One day before induction ([4]; dose 30 mg/kg): 10.5 ± 0.8 mg/day; Urinary protein Day 5 after induction ([4]; dose 30 mg/kg): 52.8 ± 16.7 mg/day; Urinary protein Day 3 after induction ([4]; dose 30 mg/kg): 49.0 ± 16.7 mg/day; Serum parameter triglyceride ([4]; dose 100 mg/kg, day 7 after induction, **p < 0.01): 60 ± 4 mg/dL; Serum parameter BUN [4, 8]: 23.6 ± 1.6 mg/dL; Serum parameter Total cholesterol [4, 8]: 66 ± 2 mg/dL; Urinary protein Day 5 after induction ([4]; dose 100 mg/kg, *p < 0.05): 14.3 ± 1.0 mg/day; Urinary protein Day 3 after induction ([4]; dose 100 mg/kg, *p < 0.05): 14.5 ± 1.7 mg/day; Urinary protein One day before induction ([4]; dose 100 mg/kg): 12.2 ± 2.5 mg/day; inhibitory effect against increase of urinary protein (in words) ([4]; oral, 30 and 100 mg/kg): dose dependent inhibitory effect against increase of urinary protein; concentrations of serum BUN, total cholesterol and triglyceride (in words) ([4]; oral, 30 and 100 mg/kg, day 7 after induction): dose dependent decrease; inhibitory effect against formation of TXA2 (in words) [3]: remarkable inhibitory effect against formation of TXA2; Survival rate (endotoxin induced death; dose 100 mg/kg): 68%; Survival rate (endotoxin induced death; dose 300 mg/kg): 75%; effect on survival / endotoxin induced death (in words) (endotoxin induced death; oral, 100 and 300 mg/kg): increase in survival rate with the increase of dose was clearly observed |
| CC(C)(C)c1cc(-c2nc(OCCc3ccccc3)c3[nH]cnc3n2)cc(C(C)(C)C)c1O [Example 6, 2-(3,5-di-tert-butyl-4-hydroxyphenyl)-6-phenethyloxypurine] | 3.5 µM | 0.681 µM | 35% | – |
| COc1nc(-c2cc(C(C)(C)C)c(O)c(C(C)(C)C)c2)nc2nc[nH]c12 [Example 1, 2-(3,5-di-tert-butyl-4-hydroxyphenyl)-6-methoxypurine] | 3.5 µM | 0.963 µM | 46% | – |
| CCCCOc1nc(-c2cc(C(C)(C)C)c(O)c(C(C)(C)C)c2)nc2nc[nH]c12 [Example 3, 6-n-butoxy-2-(3,5-di-tert-butyl-4-hydroxyphenyl)purine] | 3.5 µM | 0.174 µM | 78% | inhibitory effect against formation of TXA2 (in words) [3]: remarkable inhibitory effect against formation of TXA2 |
| CC(C)(C)c1cc(-c2nc(O)c3[nH]cnc3n2)cc(C(C)(C)C)c1O [Example 7, 2-(3,5-di-tert-butyl-4-hydroxyphenyl)-6-hydroxypurine] | 3.4 µM | – | 5% | – |
| O=C(O)/C=C/c1ccc(Cn2ccnc2)cc1 [Ozagrel HCl, reference compound] | – | 0.017 µM | – | inhibitory effect against TXA2 synthesis (literature, in words) [5]: very high inhibitory effect against TXA2 synthesis |
| CCCCCCCCCCCCCCCCCCNC(=O)OCC(COP(=O)([O-])OCC[n+]1ccsc1)OC (racemic) [CV-3988, rac-3-(N-n-octadecylcarbamoyl)-2-methoxypropyl-2-thiazolium ethyl phosphate, reference compound] | – | – | 78% | anti-PAF activity (literature, in words) [6]: high anti-PAF activity |

Now from value to compound, other results behind:

| IC50 [1] | IC50 [3] | Compound | inhibition at 30 µM [2] | also measured |
| --- | --- | --- | --- | --- |
| 5.4 µM | – | CCCCCCCCOc1nc(-c2cc(C(C)(C)C)c(O)c(C(C)(C)C)c2)nc2nc[nH]c12 [Example 5, 2-(3,5-di-tert-butyl-4-hydroxyphenyl)-6-n-octyloxypurine] | 15% | – |
| 3.7 µM | 0.942 µM | CCCCCCOc1nc(-c2cc(C(C)(C)C)c(O)c(C(C)(C)C)c2)nc2nc[nH]c12 [Example 4, 2-(3,5-di-tert-butyl-4-hydroxyphenyl)-6-n-hexyloxypurine] | 61% | – |
| 4 µM | – | CC(C)(C)c1cc(-c2nc(OCCCC(=O)O)c3[nH]cnc3n2)cc(C(C)(C)C)c1O [Example 8, 6-(3-carboxy-n-propoxy)-2-(3,5-di-tert-butyl-4-hydroxyphenyl)purine] | 5% | – |
| 3.6 µM | – | CC(C)(C)c1cc(-c2nc(OCCCCCC(=O)O)c3[nH]cnc3n2)cc(C(C)(C)C)c1O [Example 9, 6-(5-carboxy-n-pentyloxy)-2-(3,5-di-tert-butyl-4-hydroxyphenyl)purine] | 2% | – |
| 3.7 µM | – | CC(C)(C)c1cc(-c2nc(OCCCCCCCC(=O)O)c3[nH]cnc3n2)cc(C(C)(C)C)c1O [Example 10, 6-(7-carboxy-n-heptyloxy)-2-(3,5-di-tert-butyl-4-hydroxyphenyl)purine] | 4% | – |
